Data reported in patent publication US20080221063A1, “Heterocyclic Sulfonamide Derivatives As Inhibitors Of Factor Xa” (ASTRAZENECA AB, priority 2005, published 2008).

Biological target: T1, human FXa (Homo sapiens, UniProt P00742)
T1 construct: FXa solution (human FXa, Haematologic Technologies Inc., Essec Junction, Vt., USA); purchased Haematologic Technologies Inc
Experiment: Measurement of Factor Xa Inhibition (chromogenic substrate method)
Assay type: biochemical
Details: chromogenic substrate S-2765, 40 min incubation at 37° C., pH 7.4
Description: a) Measurement of Factor Xa Inhibition
The FXa inhibitor potency was measured with a chromogenic substrate method, in a Plato 3300 robotic microplate processor (Rosys AG, CH-8634 Hombrechtikon, Switzerland), using 96-well, half-volume microtiter plates (Costar, Cambridge, Mass., USA; Cat No 3690). Stock solutions of test substance in DMSO (72 μL), 10 mmol/L, alternatively 1 mmol/L were diluted serially 1:3 (24+48 μL) with DMSO to obtain ten different concentrations, which were analyzed as samples in the assay, together with controls and blanks. As control sample melagatran was analysed. The dilutions of each test substance were analyzed consecutively, row-wise on the microtiter plate, with wasp cycles between substances to avoid cross-contamination. […] The final assay concentrations were: test substance 0.0068-133, respectively 0.00068-13.3 μmol/L, S-2765 0.40 mmol/L (KM=0.25 mmol/L) and FXa […]. The linear absorbance increase at 405 n=during 40 min incubation at 37° C. was used for calculation of percent inhibition for the test samples, as compared to references without inhibitor and/or enzyme. […]

T1 sequence (P00742 235-488 limits assumed): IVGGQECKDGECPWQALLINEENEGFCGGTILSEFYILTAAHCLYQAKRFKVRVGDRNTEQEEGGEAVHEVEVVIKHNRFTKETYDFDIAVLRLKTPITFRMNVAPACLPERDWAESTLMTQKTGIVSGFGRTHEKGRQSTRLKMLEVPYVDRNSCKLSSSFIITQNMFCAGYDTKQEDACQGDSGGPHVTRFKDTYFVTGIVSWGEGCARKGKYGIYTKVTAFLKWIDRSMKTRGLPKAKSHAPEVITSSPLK
T1 sequence (P00742 41-179 partner limits assumed): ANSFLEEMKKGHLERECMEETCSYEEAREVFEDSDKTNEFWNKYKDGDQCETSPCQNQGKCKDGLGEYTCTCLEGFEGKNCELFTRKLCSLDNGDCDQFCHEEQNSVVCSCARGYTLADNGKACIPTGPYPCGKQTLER

Row | IC50 [nM] | SMILES
1 | 2.3 | CC(C)OC(=O)C1CN(S(=O)(=O)c2ccc3c(Cl)c[nH]c3c2)CC(=O)N1CC1CCN(c2ccc(=O)n(C)n2)CC1 (centres unmarked) [Example 13, 4-(3-Chloro-1H-indole-6-sulfonyl)-1-[1-(1-methyl-6-oxo-1,6-dihydro-pyridazin-3-yl)-piperidin-4-ylmethyl]-6-oxo-piperazine-2-carboxylic acid isopropyl ester]
2 | 5 | CCNC(=O)C1CN(S(=O)(=O)c2ccc3c(Cl)c[nH]c3c2)CC(=O)N1CC1CCN(c2ccc(=O)n(C)n2)CC1 (centres unmarked) [Example 4, 4-(3-Chloro-1H-indole-6-sulfonyl)-1-[1-(1-methyl-6-oxo-1,6-dihydro-pyridazin-3-yl)-piperidin-4-ylmethyl]-6-oxo-piperazine-2-carboxylic acid ethylamide]
